{"source": "paper PMC12589586", "about": "“Targeting TAZ-TEAD in minimal residual disease enhances the duration of targeted therapy in melanoma models” (Nature Communications, 2025)", "key": {"TEAD4": {"target": "T1, TEAD4 (Mus musculus, UniProt Q62296)", "T1 construct": "FLAG-tagged mTEAD4, depalmitoylated", "T1 sequence (Q62296 whole entry)": "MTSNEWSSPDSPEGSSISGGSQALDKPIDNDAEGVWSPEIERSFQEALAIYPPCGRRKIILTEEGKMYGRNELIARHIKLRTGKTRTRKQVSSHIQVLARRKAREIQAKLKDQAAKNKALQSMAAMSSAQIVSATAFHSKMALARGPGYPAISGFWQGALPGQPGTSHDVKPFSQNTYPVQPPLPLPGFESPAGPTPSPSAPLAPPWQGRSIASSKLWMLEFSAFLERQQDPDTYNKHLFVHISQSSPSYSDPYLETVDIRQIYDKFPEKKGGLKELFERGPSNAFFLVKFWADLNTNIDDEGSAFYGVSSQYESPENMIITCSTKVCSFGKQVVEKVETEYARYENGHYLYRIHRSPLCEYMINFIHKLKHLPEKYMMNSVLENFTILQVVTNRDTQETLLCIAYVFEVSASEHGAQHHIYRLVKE", "assay": "protein thermal shift assay (delta Tm); no binding to palmitoylated TEAD4"}, "TEAD1 [1]": {"target": "T2, TEAD1 (Homo sapiens, UniProt P28347)", "T2 sequence (P28347 whole entry)": "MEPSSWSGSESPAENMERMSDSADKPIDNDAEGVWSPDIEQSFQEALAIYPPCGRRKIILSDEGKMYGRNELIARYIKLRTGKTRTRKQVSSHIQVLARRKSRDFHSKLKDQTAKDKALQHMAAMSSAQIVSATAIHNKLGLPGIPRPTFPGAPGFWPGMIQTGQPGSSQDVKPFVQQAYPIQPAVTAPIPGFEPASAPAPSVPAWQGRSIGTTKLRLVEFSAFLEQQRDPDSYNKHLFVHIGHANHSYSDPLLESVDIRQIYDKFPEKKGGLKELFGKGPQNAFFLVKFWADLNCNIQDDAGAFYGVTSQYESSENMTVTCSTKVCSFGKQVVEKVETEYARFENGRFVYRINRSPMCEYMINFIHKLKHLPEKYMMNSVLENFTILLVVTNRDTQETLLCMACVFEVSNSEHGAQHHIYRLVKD", "assay": "protein thermal shift assay (delta Tm)", "assay_type": "binding", "parameters": "FLAG-tagged hTEAD1, depalmitoylated"}, "TEAD1 [2]": {"target": "T2, TEAD1", "assay": "co-crystal structure ([…] Å); also protein thermal shift", "assay_type": "binding", "parameters": "FLAG-tagged hTEAD1, depalmitoylated (thermal shift)"}}, "data": [{"smiles": "C=CC(=O)N1CCc2ccc(Oc3ccc(C(F)(F)F)cc3)cc2C1", "note": "[OPN-9643, 1-(7-(4-(trifluoromethyl)phenoxy)-3,4-dihydroisoquinolin-2(1H)-yl)prop-2-en-1-one]", "values": [{"measurement": "protein thermal shift assay (delta Tm); no binding to palmitoylated TEAD4", "setting": "TEAD4", "result": "Incubation of these compounds with depalmitoylated TEAD4 resulted in significant Tm shifts, indicating binding and stabilization of target proteins"}, {"measurement": "protein thermal shift assay (delta Tm)", "setting": "TEAD1 [1]", "result": "protein thermal shift analysis and confirmed the binding of both compounds to depalmitoylated TEAD1 and TEAD4 proteins"}]}, {"smiles": "C=CC(=O)N1CCc2ccc(Oc3ccc(C(F)(F)F)c(F)c3)cc2C1", "note": "[OPN-9652, 1-(7-(3-fluoro-4-(trifluoromethyl)phenoxy)-3,4-dihydroisoquinolin-2(1H)-yl)prop-2-en-1-one]", "values": [{"measurement": "protein thermal shift assay (delta Tm); no binding to palmitoylated TEAD4", "setting": "TEAD4", "result": "Incubation of these compounds with depalmitoylated TEAD4 resulted in significant Tm shifts, indicating binding and stabilization of target proteins"}, {"measurement": "co-crystal structure (2.03 Å); also protein thermal shift", "setting": "TEAD1 [2]", "result": "OPN-9652 occupies the central palmitate-binding pocket and covalently modifies Cys359"}]}]}
